Test results as given in US7524503B2, “Human cytomegalovirus (HCMV) cytotoxic T cell epitopes, polyepitopes compositions comprising same and diagnostic and prophylactic and therapeutic uses therefor” (priority 2001, dated 2009).
Read-outs that look alike come from different tables or passages of the source.

Tests used:
[1] = test system: PBMC from healthy HCMV seropositive donors; assay: IFN-γ ELISPOT assay; type: cell-based, human; conditions: peptide 10 μg/ml
Outline: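 IFN-γ-secreting T cells were counted as spots, with no-peptide control wells subtracted and means taken from triplicate wells. These spots came from healthy seropositive carriers' PBMC, 2.5×10^5 per well.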

[2] = test system: peptide-sensitized autologous PHA blasts or LCLs; type: cell-based, human; parameters: key to CTL response: Y: Yes; ND: Not detected
CD8+ T cells = assay: CD4+/CD8+ analysis of 20-mer peptides (intracellular IFN-γ staining or depletion ELISPOT); type: cell-based, human
Method: (§1) To determine whether a particular 20-mer peptide contained either a CD4^+- or CD8^+-restricted epitope, or both, CD4^+/CD8^+ cell depletion ELISPOT assays were performed on PBMC from healthy virus carriers. For any one experiment, three populations of cells were used: a) CD8^+-depleted PBMC, b) CD4^+-depleted PBMC, and c) non-depleted PBMC. These populations of cells were tested concurrently with the same peptides in a conventional ELISPOT assay as described herein above. DYNABEADS M-450 (Dynal, Oslo, Norway) that bound specifically to CD4^+- or CD8^+ cells were used to perform the depletion essentially according to manufacturers instructions. Beads were washed twice in cold PBS supplemented with 2% FCS using magnetic isolation. The requisite number of cells was resuspended in cold PBS supplemented with 2% FCS, added to the beads and then incubated at 4° C., in the dark, for 30 mins (CD8^+ beads) or 60 mins (CD4^+ beads). Populations were depleted of CD4^+ or CD8^+ cells using magnetic separation. After depletion, the non-attached cells were removed and washed once in growth medium, counted and used in conventional ELISPOT assay. Depleted cells were used at 1.7×10^5 cells per well and the non-depleted population was used at the standard 2.5×10^5 cells per well. After the depletion step, each respective cell population was assessed for the purity of CD4^+ and CD8^+ T cells by three-colour flow cytometry. Samples of depleted cell populations were stained with anti-CD3 antibody directly conjugated to fluorescein isothiocyanate (FITC), anti-CD4 antibody conjugated with phycoerythrin (PE) fluorochrome, and anti-CD8 antibody conjugated with Tricolor fluorochrome (described below). The percent of CD3^+/CD4^+ cells present within the CD8^+-depleted population and the percent of CD3^+/CD8^+ cells present within the CD4^+-depleted populations were assessed on FACSCalibur cytometer (Becton Dickinson). The purity of each population was greater than 90% and the results from the ELISPOT assays are expressed as the percentage of CD4+ or CD8^+ cells within the depleted populations that responded toward each peptide by producing IFN-γ.
(§2) PBMCs were incubated at 37° C. in RPMI+10% FCS with and without 10 μg/ml peptides for 6 hours. Golgiplug™ (Pharmingen, San Diego, Calif., USA) was added to the samples according to manufacturer's instructions during the second hour of incubation and cells activated with 25 ng/ml phorbol 12-myristidate 13-acetate (PMA; Sigma-Aldrich Co, St. Louis Mo.) and 1 μg/ml iomomycin (Sigma) acted as a positive control. Following the incubation, 1×10^6 cells/sample were washed and resuspended in staining buffer consisting of PBS with GolgiPlug™, 3% FCS and sodium azide. Cells were then stained with FITC conjugated anti-CD3-FITC (UCHT1, Immunotech, Marseille, France), and either Tricolor (TRI) conjugated anti-CD4 (S3.5, Caltag, Burlingame, Calif.) or anti-CD8 (3B5, Caltag) for 30 minutes, 4° C. in the dark. The cells were fixed for 20 min at 4° C. with Cytofix/Cytoperm™ (BD Biosciences) and resuspended in Perm/Wash™ permeabilization buffer (BD Biosciences) according to manufacturers protocol. Fixed cells were stained with phycoerythrin (PE) conjugated anti-human IFN-γ (B27, Pharmingen) for 30 min at 4° C. in the dark. As a negative control, cells were stained with appropriate isotype matched control antibodies. Cells were washed twice in permeabilization buffer and resuspended in staining buffer before analysis by three-colour flow cytometry on a FACSCalibur cytometer (BD Biosciences). All data analysis was carried out using FlowJo software (Tree Star, Inc. San Carlos, CA).
(§3) When using 20-mer peptides to map epitopes by ELISPOT, it is possible that some responses may be MHC class-II restricted, and not necessarily restricted through HLA class I alleles. It was evident throughout this study that some epitopes identified using ELISPOT could not be confirmed using cytotoxicity analysis. […]

CD4+ T cells = assay: as above; type: cell-based, human
Method: as §1, §2, §3

HLA A2 = molecular target: T1, HLA A2 (Homo sapiens, UniProt P04439, D140Y/D185E/D98H/E176V/E277Q/G131W/G231S/I119V/I121R/I166T/I218V/L300P/L318F/N151K/N90K/P208A/P217A/Q86G/Q94H/R138H/R169H/T345S); type: cell-based; conditions: HLA A2 on T2 cells; relative increase in HLA expression vs no peptide at 26° C.
T1 construct: endogenous in cells; host or cells: T2 cells

[3] = overlapping 20mer peptides, Table 4

## QQNQWKEPDVYYTSAFVFPT
[1]; donor eight
  ELISPOT Responses (SFC/10^6 PBMC): JW(600) SFC/10^6 PBMC
[2]; [3]
  CTL response: Y
CD8+ T cells; donor eight
  Responding cells (% CD8): 0.03%
CD4+ T cells; donor eight
  Responding cells (% CD4): 0%

## QYDPVAALFFFDIDLLLQRG
[1]; donor seven
  ELISPOT Responses (SFC/10^6 PBMC): SB(97) SFC/10^6 PBMC
[2]; [3]
  CTL response: Y
CD8+ T cells; donor seven
  Responding cells (% CD8): 0.03%
CD4+ T cells; donor seven
  Responding cells (% CD4): 0.22%

## RQTEKHELLVLVKKAQLNRH
[1]; donor fourteen
  ELISPOT Responses (SFC/10^6 PBMC): RK(313) SFC/10^6 PBMC
[2]; [3]
  CTL response: Y
CD8+ T cells; donor fourteen
  Responding cells (% CD8): 0.57%
CD4+ T cells; donor fourteen
  Responding cells (% CD4): 1.52%

## RSYAYIYTTYLLGSNTEYVA (human cytomegalovirus gB CTL epitope peptide)
[1]; donor fourteen
  ELISPOT Responses (SFC/10^6 PBMC): RK(170) SFC/10^6 PBMC
[2]; [3]
  CTL response: Y
CD8+ T cells; donor fourteen
  Responding cells (% CD8): 0.58%
CD4+ T cells; donor fourteen
  Responding cells (% CD4): 0.39%

## SICPSQEPMSIYVYALPLKM
[1]; donor eight
  ELISPOT Responses (SFC/10^6 PBMC): 3178 SFC/10^6 PBMC
[2]; [3]
  CTL response: Y
CD8+ T cells; donor eight
  Responding cells (% CD8): 1.36%
CD4+ T cells; donor eight
  Responding cells (% CD4): 1.18%

## SMMWMRFFV (human cytomegalovirus US2 CTL epitope peptide)
[1]; donor delta
  ELISPOT Responses (SFC/10^6 PBMC): SE(393) SFC/10^6 PBMC
[2]; predicted epitopes, Table 3
  CTL response: Y
HLA A2
  MSE (MHC stabilization efficiency): ++ (++ = 100-199%)

## SQYRIQGKLEYRHTWDRHDE
[1]; donor delta
  ELISPOT Responses (SFC/10^6 PBMC): SE(1203) SFC/10^6 PBMC
[2]; [3]
  CTL response: Y
CD8+ T cells; donor delta
  Responding cells (% CD8): 2.0%
CD4+ T cells; donor delta
  Responding cells (% CD4): 0%

## TAAKAYAVGQFEQPTETPPE (human cytomegalovirus IE2 CTL epitope peptide)
[1]; donor fourteen
  ELISPOT Responses (SFC/10^6 PBMC): 859 SFC/10^6 PBMC
[1]; donor seven
  ELISPOT Responses (SFC/10^6 PBMC): 326 SFC/10^6 PBMC
[2]; [3]
  CTL response: Y
CD8+ T cells; donor fourteen
  Responding cells (% CD8): 0.35%
CD4+ T cells; donor fourteen
  Responding cells (% CD4): 0.2%

## TYEKYGNVSVFETSGGLVVF (human cytomegalovirus gB CTL epitope peptide)
[1]; donor delta
  ELISPOT Responses (SFC/10^6 PBMC): SE(75) SFC/10^6 PBMC
[2]; [3]
  CTL response: Y
CD8+ T cells; donor delta
  Responding cells (% CD8): 0.097%
CD4+ T cells; donor delta
  Responding cells (% CD4): 0%

## VFTWPPWQAGILARNLVPMV
[1]; donor delta
  ELISPOT Responses (SFC/10^6 PBMC): 533 SFC/10^6 PBMC
[1]; donor four
  ELISPOT Responses (SFC/10^6 PBMC): 420 SFC/10^6 PBMC
[2]; [3]
  CTL response: Y
CD8+ T cells; donor delta
  Responding cells (% CD8): 0.45%
CD4+ T cells; donor delta
  Responding cells (% CD4): 0%

## VLAELVKQI (human cytomegalovirus IE1 CTL epitope peptide)
[1]; donor seven
  ELISPOT Responses (SFC/10^6 PBMC): SB(276) SFC/10^6 PBMC
[2]; predicted epitopes, Table 3
  CTL response: Y
HLA A2
  MSE (MHC stabilization efficiency): ++ (++ = 100-199%)

## WPRERAWALKNPHLAYNPFR (human cytomegalovirus pp150 CTL epitope peptide)
[1]; donor twelve
  ELISPOT Responses (SFC/10^6 PBMC): RE(83) SFC/10^6 PBMC
[2]; [3]
  CTL response: Y
CD8+ T cells; donor twelve
  Responding cells (% CD8): 0.27%
CD4+ T cells; donor twelve
  Responding cells (% CD4): 0.03%

## YPSAAERKHRHLPVADAVIH
[1]; donor delta
  ELISPOT Responses (SFC/10^6 PBMC): SE(350) SFC/10^6 PBMC
[2]; [3]
  CTL response: Y
CD8+ T cells; donor delta
  Responding cells (% CD8): 0.313%
CD4+ T cells; donor delta
  Responding cells (% CD4): 0%
